Data published in BindingDB's records for doi:10.1021/np970367q (Seoul National University, 1998).

test: Inhibition of bovine brain PI-PLCgamma1 at 125 ug/mL

Compound	IC50 [µM]
CCCCCCCCCCCCCc1cccc(O)c1 [3-tridecyl phenol]	88
CCCCCC/C=C\CCCCCCCCCc1cccc(O)c1C(=O)O [6-[10'(Z)-heptade-cenyljsalicylic acid]	74
CCCCCC/C=C\CCCCCCCCCc1cccc(O)c1 [3-[10'(Z)-heptadecenyl]phenol]	95
CCCCCCCCCCCCCCCc1cccc(O)c1 [3-pentadecylphenol]	92.6
CCCCCC/C=C\CCCCCCCc1cccc(O)c1C(=O)O [6-{8(Z)-pentadecenyl}salicylic acid]	76.3
